Where two headings read alike, the source gives them in different places.
Key:
Experiment in all cases: selectivity profiling in a panel of 340 wild-type kinases (Reaction Biology Europe)
Format in all cases: binding
340 wild-type kinases [1] = biological target: T1, 340 wild-type kinases (Homo sapiens, UniProt P36894)
T1 construct: purchased Reaction Biology Europe

340 wild-type kinases [2] = biological target: T2, 340 wild-type kinases (Homo sapiens, UniProt P57078)
T2 construct: purchased Reaction Biology Europe
T2 sequence (P57078 1-832): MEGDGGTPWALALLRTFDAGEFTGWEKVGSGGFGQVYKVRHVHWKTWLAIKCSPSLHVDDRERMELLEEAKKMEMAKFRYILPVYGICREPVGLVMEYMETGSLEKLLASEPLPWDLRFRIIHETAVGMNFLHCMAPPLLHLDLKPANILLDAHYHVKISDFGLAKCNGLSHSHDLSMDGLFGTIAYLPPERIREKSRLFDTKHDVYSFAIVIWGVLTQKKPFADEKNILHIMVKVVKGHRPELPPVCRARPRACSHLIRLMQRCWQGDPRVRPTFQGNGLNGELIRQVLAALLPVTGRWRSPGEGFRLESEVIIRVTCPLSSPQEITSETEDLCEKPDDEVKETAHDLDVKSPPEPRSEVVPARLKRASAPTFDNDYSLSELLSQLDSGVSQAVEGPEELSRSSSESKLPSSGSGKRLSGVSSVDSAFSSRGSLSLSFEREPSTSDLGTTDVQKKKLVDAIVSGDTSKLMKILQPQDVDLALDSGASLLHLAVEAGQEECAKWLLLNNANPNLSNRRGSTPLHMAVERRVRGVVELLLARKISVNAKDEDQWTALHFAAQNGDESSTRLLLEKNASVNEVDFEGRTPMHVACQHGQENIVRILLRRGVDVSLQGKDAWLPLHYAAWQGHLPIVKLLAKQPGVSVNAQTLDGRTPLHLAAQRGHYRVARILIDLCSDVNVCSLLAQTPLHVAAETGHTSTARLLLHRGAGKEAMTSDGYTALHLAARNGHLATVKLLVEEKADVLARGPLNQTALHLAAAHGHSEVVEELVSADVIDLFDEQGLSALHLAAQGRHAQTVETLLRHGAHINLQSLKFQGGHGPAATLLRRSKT

340 wild-type kinases [3] = biological target: T3, 340 wild-type kinases (Homo sapiens, UniProt Q9Y463)
T3 construct: purchased Reaction Biology Europe
T3 sequence (Q9Y463 whole entry): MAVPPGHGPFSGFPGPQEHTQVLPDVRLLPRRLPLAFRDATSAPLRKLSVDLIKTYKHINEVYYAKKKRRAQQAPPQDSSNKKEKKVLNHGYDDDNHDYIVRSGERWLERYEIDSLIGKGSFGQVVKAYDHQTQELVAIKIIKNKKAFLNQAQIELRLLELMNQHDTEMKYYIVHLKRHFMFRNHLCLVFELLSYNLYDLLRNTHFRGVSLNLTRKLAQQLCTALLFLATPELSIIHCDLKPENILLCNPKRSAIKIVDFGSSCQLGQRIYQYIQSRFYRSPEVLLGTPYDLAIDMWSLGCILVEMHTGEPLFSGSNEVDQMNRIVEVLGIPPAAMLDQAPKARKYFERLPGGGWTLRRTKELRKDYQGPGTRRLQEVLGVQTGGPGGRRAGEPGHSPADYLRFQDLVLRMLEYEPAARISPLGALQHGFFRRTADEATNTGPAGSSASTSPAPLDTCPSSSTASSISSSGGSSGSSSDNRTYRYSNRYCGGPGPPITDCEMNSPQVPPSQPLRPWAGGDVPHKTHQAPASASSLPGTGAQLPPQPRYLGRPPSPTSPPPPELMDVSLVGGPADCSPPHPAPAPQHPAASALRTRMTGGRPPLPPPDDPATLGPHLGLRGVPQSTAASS

340 wild-type kinases [4] = biological target: T4, 340 wild-type kinases (Homo sapiens, UniProt P53778)
T4 construct: purchased Reaction Biology Europe
T4 sequence (P53778 1-367): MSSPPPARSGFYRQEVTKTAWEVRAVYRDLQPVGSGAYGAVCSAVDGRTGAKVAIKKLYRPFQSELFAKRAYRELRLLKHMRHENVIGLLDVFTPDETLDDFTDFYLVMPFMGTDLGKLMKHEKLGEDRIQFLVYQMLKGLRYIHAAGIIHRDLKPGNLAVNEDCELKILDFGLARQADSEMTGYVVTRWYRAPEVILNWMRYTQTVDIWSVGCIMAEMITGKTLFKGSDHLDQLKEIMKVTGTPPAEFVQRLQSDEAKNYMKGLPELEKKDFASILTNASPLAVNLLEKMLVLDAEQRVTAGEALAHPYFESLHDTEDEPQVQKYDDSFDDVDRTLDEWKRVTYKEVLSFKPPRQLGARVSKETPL

340 wild-type kinases [5] = biological target: T5, 340 wild-type kinases (Homo sapiens, UniProt Q99683)
T5 construct: purchased Reaction Biology Europe
T5 sequence (Q99683 1-1374): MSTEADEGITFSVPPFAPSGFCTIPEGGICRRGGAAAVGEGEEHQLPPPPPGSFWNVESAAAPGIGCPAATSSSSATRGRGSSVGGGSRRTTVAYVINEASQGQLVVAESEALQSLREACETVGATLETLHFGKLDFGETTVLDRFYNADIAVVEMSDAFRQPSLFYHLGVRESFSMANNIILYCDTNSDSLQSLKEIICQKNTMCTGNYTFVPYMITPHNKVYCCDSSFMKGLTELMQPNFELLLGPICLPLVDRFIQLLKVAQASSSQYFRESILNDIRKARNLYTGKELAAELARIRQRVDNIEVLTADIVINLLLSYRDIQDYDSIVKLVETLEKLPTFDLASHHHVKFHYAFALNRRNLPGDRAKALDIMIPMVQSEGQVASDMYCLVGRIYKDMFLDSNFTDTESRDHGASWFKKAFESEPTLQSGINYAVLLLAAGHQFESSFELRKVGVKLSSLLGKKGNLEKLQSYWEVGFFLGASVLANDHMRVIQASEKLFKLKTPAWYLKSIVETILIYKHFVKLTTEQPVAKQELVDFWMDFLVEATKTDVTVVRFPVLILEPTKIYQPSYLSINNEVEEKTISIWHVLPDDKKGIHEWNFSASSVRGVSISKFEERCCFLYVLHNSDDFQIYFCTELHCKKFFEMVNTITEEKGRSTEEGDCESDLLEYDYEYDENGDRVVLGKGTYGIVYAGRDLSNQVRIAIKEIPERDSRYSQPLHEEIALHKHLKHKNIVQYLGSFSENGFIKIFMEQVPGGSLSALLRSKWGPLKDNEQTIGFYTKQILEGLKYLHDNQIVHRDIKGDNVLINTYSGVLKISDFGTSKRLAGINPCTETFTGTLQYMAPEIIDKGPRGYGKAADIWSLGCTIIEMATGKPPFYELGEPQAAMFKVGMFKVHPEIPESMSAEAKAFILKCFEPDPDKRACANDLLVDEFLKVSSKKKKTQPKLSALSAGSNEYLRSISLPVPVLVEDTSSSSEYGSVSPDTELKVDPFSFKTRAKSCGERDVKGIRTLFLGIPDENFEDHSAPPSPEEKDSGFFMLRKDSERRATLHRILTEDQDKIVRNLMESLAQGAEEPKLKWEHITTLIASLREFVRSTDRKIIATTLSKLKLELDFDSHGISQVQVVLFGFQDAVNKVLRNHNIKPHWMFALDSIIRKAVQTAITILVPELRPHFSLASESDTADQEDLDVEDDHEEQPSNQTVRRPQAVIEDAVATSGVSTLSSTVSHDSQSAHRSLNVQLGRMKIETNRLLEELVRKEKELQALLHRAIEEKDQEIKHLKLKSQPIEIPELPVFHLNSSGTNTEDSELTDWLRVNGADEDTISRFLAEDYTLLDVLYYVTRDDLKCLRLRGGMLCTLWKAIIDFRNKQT

T1 sequence (P36894 24-532): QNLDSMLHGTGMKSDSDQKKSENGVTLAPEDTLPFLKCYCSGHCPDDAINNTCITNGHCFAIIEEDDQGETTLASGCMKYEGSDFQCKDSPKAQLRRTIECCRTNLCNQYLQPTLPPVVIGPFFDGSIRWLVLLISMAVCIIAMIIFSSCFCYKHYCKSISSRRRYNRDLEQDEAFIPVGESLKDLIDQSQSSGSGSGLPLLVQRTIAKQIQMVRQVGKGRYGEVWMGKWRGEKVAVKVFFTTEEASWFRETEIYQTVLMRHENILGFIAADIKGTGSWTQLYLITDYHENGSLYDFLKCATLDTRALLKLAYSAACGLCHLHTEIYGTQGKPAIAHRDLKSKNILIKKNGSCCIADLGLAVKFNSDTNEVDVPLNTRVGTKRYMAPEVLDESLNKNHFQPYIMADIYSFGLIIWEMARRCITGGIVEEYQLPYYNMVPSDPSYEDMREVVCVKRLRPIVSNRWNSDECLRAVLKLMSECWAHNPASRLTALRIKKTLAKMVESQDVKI

CNC(=O)c1ccc2c(c1)C(=O)c1ccc(Nc3ccc(F)c(NC(=O)C4CC4)c3)cc1CC2 [Compound 2015]
remaining activity at 0.2 µM (340 wild-type kinases [1]; 0.2 µM 2015, read-out: BMPR1A residual activity): 95.6% | remaining activity at 1 µM (340 wild-type kinases [1]; 1 µM 2015, read-out: BMPR1A residual activity): 98.5% | remaining activity at 0.2 µM (340 wild-type kinases [1]; BMPR1A, 0.2 µM, read-out: residual activity): 95.6% | remaining activity at 1 µM (340 wild-type kinases [1]; BMPR1A, 1 µM, read-out: residual activity): 98.5% | remaining activity at 0.2 µM (340 wild-type kinases [2]; 0.2 µM 2015, read-out: RIPK4 residual activity): 104% | remaining activity at 1 µM (340 wild-type kinases [2]; 1 µM 2015, read-out: RIPK4 residual activity): 98.2% | remaining activity at 0.2 µM (340 wild-type kinases [2]; RIPK4, 0.2 µM, read-out: residual activity): 104% | remaining activity at 1 µM (340 wild-type kinases [2]; RIPK4, 1 µM, read-out: residual activity): 98.2% | remaining activity at 0.2 µM (340 wild-type kinases [3]; 0.2 µM 2015, read-out: DYRK1B residual activity): 96.9% | remaining activity at 1 µM (340 wild-type kinases [3]; 1 µM 2015, read-out: DYRK1B residual activity): 94.1% | remaining activity at 0.2 µM (340 wild-type kinases [3]; DYRK1B, 0.2 µM, read-out: residual activity): 96.9% | remaining activity at 1 µM (340 wild-type kinases [3]; DYRK1B, 1 µM, read-out: residual activity): 94.1% | remaining activity at 0.2 µM (340 wild-type kinases [4]; 0.2 µM 2015, read-out: p38gamma residual activity): 83.5% | remaining activity at 1 µM (340 wild-type kinases [4]; 1 µM 2015, read-out: p38gamma residual activity): 77.7% | remaining activity at 0.2 µM (340 wild-type kinases [4]; p38gamma, 0.2 µM, read-out: residual activity): 83.5% | remaining activity at 1 µM (340 wild-type kinases [4]; p38gamma, 1 µM, read-out: residual activity): 77.7% | remaining activity at 0.2 µM (340 wild-type kinases [5]; 0.2 µM 2015, read-out: ASK1 residual activity): 95.5% | remaining activity at 1 µM (340 wild-type kinases [5]; 1 µM 2015, read-out: ASK1 residual activity): 95% | remaining activity at 0.2 µM (340 wild-type kinases [5]; ASK1, 0.2 µM, read-out: residual activity): 95.5% | remaining activity at 1 µM (340 wild-type kinases [5]; ASK1, 1 µM, read-out: residual activity): 95%
